Experimental data as given in patent publication US11214803B2, “Modulators of YAP1 expression” (Ionis Pharmaceuticals, Inc., priority 2019, dated 2022).
Strand notation (5' to 3'): a small letter for the sugar, then the base; units joined by * are phosphorothioate-linked, units joined directly phosphodiester-linked; [ ] holds rarer units or linkages, { } end groups; capitals alone tell only the bases. e = 2'-O-(2-methoxyethyl) (MOE); k = constrained ethyl (cEt); [5mC] = 5-methylcytosine; d = 2'-deoxy (DNA); m = 2'-O-methyl

System: Yap1 mRNA
Assay: Dose-dependent inhibition of human Yap1 in SNU-449 cells (Example 9, RTS36584)
Assay type: cell-based
Details: free uptake; for % UTC (Yap1 mRNA): approximately 48 hours; for IC50: linear regression on a log/linear plot
Outline: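 SNU-449 cells (10,000/well) took up modified oligonucleotides by free uptake at a range of doses for about 48 h. Yap1 mRNA was quantified with primer-probe set RTS36584, normalised to RIBOGREEN total RNA and expressed as % untreated control; IC50 from linear regression on log/linear plot.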

Row | Substance | % UTC (Yap1 mRNA) (31.3 nM) | % UTC (Yap1 mRNA) (125.0 nM) | % UTC (Yap1 mRNA) (500.0 nM) | % UTC (Yap1 mRNA) (2000.00 nM) | IC50
1 | 1198507 (kT*kT*dA*dT*dA*dT*dG*dG*dT*dT*dT*eT*kG*eT*kG*eT; antisense) [compound 1198507] | 83 % UTC | 57 % UTC | 29 % UTC | 13 % UTC | 200 nM
2 | 1198610 (kT*kG*kT*dA*dT*dG*dT*d[5mC]*dA*dG*dA*dA*kG*kA*kG*eT; antisense) [compound 1198610] | 69 % UTC | 29 % UTC | 7 % UTC | 2 % UTC | 100 nM
3 | 1198696 (kT*kG*dT*dA*dT*dG*dT*d[5mC]*dA*dG*dA*dA*kG*eA*kG*eT) [compound 1198696] | 58 % UTC | 31 % UTC | 11 % UTC | 2 % UTC | 40 nM
4 | 1198500 (kA*kT*dT*dT*dA*dG*dG*dA*dT*dG*d[5mC]*eA*kT*eG*kG*eT; antisense) [compound 1198500] | 72 % UTC | 51 % UTC | 34 % UTC | 15 % UTC | 200 nM
5 | 1197313 (kA*kG*kT*dG*mU*dA*dT*dG*dT*d[5mC]*dA*dG*dA*kA*kG*kA; antisense) [compound 1197313] | 71 % UTC | 38 % UTC | 16 % UTC | 6 % UTC | 100 nM
6 | 1198961 (kA*kA*dA*dG*dT*dG*dT*dA*dT*dG*dT*k[5mC]*dA*kG*dA*kA; antisense) [compound 1198961] | 77 % UTC | 35 % UTC | 11 % UTC | 3 % UTC | 100 nM
7 | 1095593 (kT*kG*dA*dG*dG*dT*dA*dT*dA*dA*d[5mC]*eT*eG*eG*kG*k[5mC]; antisense) [compound 1095593] | 73 % UTC | 44 % UTC | 27 % UTC | 10 % UTC | 100 nM
8 | 1200860 (kT*kA*kA*dA*dG*mU*dG*dT*dA*dT*dG*dT*d[5mC]*kA*kG*kA; antisense) [compound 1200860] | 59 % UTC | 35 % UTC | 15 % UTC | 5 % UTC | 50 nM
9 | 1198438 (kT*dG*dT*dA*dT*dG*dT*d[5mC]*dA*dG*dA*kA*eG*kA*eG*kT) [compound 1198438] | 62 % UTC | 28 % UTC | 7 % UTC | 2 % UTC | 40 nM
10 | 1198285 (kA*kT*kT*dG*dT*d[5mC]*dT*d[5mC]*dA*dT*dG*d[5mC]*k[5mC]*eT*kT*eA; antisense) [compound 1198285] | 67 % UTC | 41 % UTC | 16 % UTC | 5 % UTC | 100 nM
11 | 1197213 (kT*kG*kT*dA*dT*dG*dT*d[5mC]*dA*dG*dA*dA*dG*kA*kG*kT; antisense) [compound 1197213] | 87 % UTC | 46 % UTC | 14 % UTC | 2 % UTC | 100 nM
12 | 1197235 (kA*kT*kT*dA*mG*dA*dG*dT*dA*dT*dG*dT*dG*kG*k[5mC]*kA; antisense) [compound 1197235] | 64 % UTC | 36 % UTC | 16 % UTC | 5 % UTC | 100 nM
13 | 1198877 (kT*kT*dA*dA*dA*dG*dT*dG*dT*dA*dT*kG*eT*k[5mC]*eA*kG; antisense) [compound 1198877] | 62 % UTC | 32 % UTC | 13 % UTC | 5 % UTC | 50 nM
14 | 1198960 (kA*kA*dG*dT*dG*dT*dA*dT*dG*dT*d[5mC]*kA*dG*kA*dA*kG; antisense) [compound 1198960] | 77 % UTC | 35 % UTC | 8 % UTC | 2 % UTC | 100 nM
15 | 1198543 (kA*kT*kT*dG*dT*d[5mC]*dT*d[5mC]*dA*dT*dG*d[5mC]*k[5mC]*kT*kT*eA; antisense) [compound 1198543] | 75 % UTC | 42 % UTC | 19 % UTC | 6 % UTC | 100 nM
16 | 1198804 (kT*kG*dT*d[5mC]*dT*d[5mC]*dA*dT*dG*d[5mC]*d[5mC]*kT*eT*kA*eT*kA; antisense) [compound 1198804] | 71 % UTC | 48 % UTC | 19 % UTC | 5 % UTC | 100 nM

Row | Substance | % UTC (Yap1 mRNA) (31.3 nM) | % UTC (Yap1 mRNA) (125.0 nM) | % UTC (Yap1 mRNA) (500.0 nM) | % UTC (Yap1 mRNA) (2000.00 nM) | IC50
17 | 1197177 (kA*kT*kT*dG*dT*d[5mC]*dT*d[5mC]*dA*dT*dG*d[5mC]*d[5mC]*kT*kT*kA; antisense) [compound 1197177] | 56 % UTC | 29 % UTC | 8 % UTC | 2 % UTC | 30 nM
18 | 1198212 (kT*kA*dT*dT*dA*dG*dA*dG*dT*dA*dT*eG*eT*eG*kG*k[5mC]) [compound 1198212] | 74 % UTC | 35 % UTC | 10 % UTC | 2 % UTC | 100 nM
19 | 1197312 (kT*kG*kT*dA*mU*dG*dT*d[5mC]*dA*dG*dA*dA*dG*kA*kG*kT; antisense) [compound 1197312] | 101 % UTC | 58 % UTC | 34 % UTC | 11 % UTC | 300 nM
20 | 1197216 (kA*kA*kA*dG*dT*dG*dT*dA*dT*dG*dT*d[5mC]*dA*kG*kA*kA; antisense) [compound 1197216] | 66 % UTC | 39 % UTC | 15 % UTC | 4 % UTC | 100 nM
21 | 1198895 (kG*kG*dA*dA*dA*dT*dT*dG*dT*d[5mC]*dT*k[5mC]*dA*kT*dG*k[5mC]; antisense) [compound 1198895] | 62 % UTC | 37 % UTC | 16 % UTC | 9 % UTC | 100 nM
22 | 1198818 (kT*kA*dT*dT*dA*dG*dA*dG*dT*dA*dT*kG*eT*kG*eG*k[5mC]) [compound 1198818] | 68 % UTC | 33 % UTC | 15 % UTC | 5 % UTC | 100 nM
23 | 1200796 (kT*kT*kA*dG*dA*mG*dT*dA*dT*dG*dT*dG*dG*k[5mC]*kA*kA; antisense) [compound 1200796] | 69 % UTC | 47 % UTC | 25 % UTC | 12 % UTC | 100 nM
24 | 1198356 (kT*kA*kA*dA*dG*dT*dG*dT*dA*dT*dG*dT*k[5mC]*eA*kG*eA; antisense) [compound 1198356] | 85 % UTC | 30 % UTC | 7 % UTC | 1 % UTC | 100 nM
25 | 1200789 (G_{ks}G_{ks}A_{ks}A_{ds}A_{ds}U_{ys}T_{ds}G_{ds}T_{ds}^{m}C_{ds}T_{ds}^{m}C_{ds}A_{ds}T_{ks}G_{ks}^{m}C_{k}; as printed in the source, key not given here) [compound 1200789] | 60 % UTC | 32 % UTC | 15 % UTC | 5 % UTC | 50 nM
26 | 1198719 (kG*eG*kA*dA*dA*dT*dT*dG*dT*d[5mC]*dT*d[5mC]*eA*eT*kG*k[5mC]; antisense) [compound 1198719] | 67 % UTC | 30 % UTC | 9 % UTC | 3 % UTC | 100 nM
27 | 1200820 (kG*kG*kA*dA*dG*mA*dT*d[5mC]*dT*dG*dA*dA*dA*k[5mC]*kT*k[5mC]; antisense) [compound 1200820] | 104 % UTC | 69 % UTC | 36 % UTC | 17 % UTC | 300 nM
28 | 1198470 (kT*kA*dT*dT*dA*dG*dA*dG*dT*dA*dT*eG*kT*eG*kG*e[5mC]; antisense) [compound 1198470] | 73 % UTC | 41 % UTC | 18 % UTC | 9 % UTC | 100 nM
29 | 1197178 (kA*kA*kT*dT*dG*dT*d[5mC]*dT*d[5mC]*dA*dT*dG*d[5mC]*k[5mC]*kT*kT; antisense) [compound 1197178] | 64 % UTC | 36 % UTC | 14 % UTC | 4 % UTC | 100 nM
30 | 1198494 (kG*kT*dG*d[5mC]*dT*dT*dT*dG*dG*dA*dA*eG*kA*eT*k[5mC]*eT; antisense) [compound 1198494] | 59 % UTC | 37 % UTC | 24 % UTC | 13 % UTC | 100 nM
31 | 1200862 (kT*kT*kT*dA*dA*mA*dG*dT*dG*dT*dA*dT*dG*kT*k[5mC]*kA; antisense) [compound 1200862] | 88 % UTC | 64 % UTC | 35 % UTC | 13 % UTC | 200 nM
